From patent publication US12077503B2, “Substituted cyclic amides and their use as herbicides” (FMC CORPORATION, priority 2015, dated 2024)

Columns and labels:
Type in all cases: in vivo
[1] = tested on: barnyardgrass (Echinochloa crus-galli); experiment: Test G Pre-Emergence Protocol; details: Echinochloa crus-galli, pre-emergence, 312 h, evaluated after 13 days
Procedure, shortened: (§1)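 Test compound in 0.5% Tween 20 acetone/water (50:50) was applied at three rates (15.625, 62.5, 250 g/ha) to soil sown one day earlier. After 13 days plants were scored for injury, where 0 means unaffected and 100 means completely damaged.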

[2] = tested on: velvetleaf (Abutilon theophrasti); experiment: Test G Pre-Emergence Protocol; details: Abutilon theophrasti, pre-emergence, 312 h, evaluated after 13 days
Procedure, shortened: as §1

corn (Zea mays) [3] = experiment: Test G Pre-Emergence Protocol; details: Zea mays, pre-emergence, 312 h, evaluated after 13 days
Procedure, shortened: as §1

[4] = tested on: redroot pigweed (Amaranthus retroflexus); experiment: Test G Pre-Emergence Protocol; details: Amaranthus retroflexus, pre-emergence, 312 h, evaluated after 13 days
Procedure, shortened: as §1

[5] = tested on: ivy-leaved morning glory (Ipomoea hederacea); experiment: Test G Pre-Emergence Protocol; details: Ipomoea, pre-emergence, 312 h, evaluated after 13 days
Procedure, shortened: as §1

[6] = tested on: giant foxtail (Setaria faberi); experiment: Test G Pre-Emergence Protocol; details: Setaria faberi, pre-emergence, 312 h, evaluated after 13 days
Procedure, shortened: as §1

[7] = tested on: barnyardgrass (Echinochloa crus-galli); experiment: Test G Post-Emergence Protocol; details: Echinochloa crus-galli, post-emergence, 312 h
Procedure, shortened: (§2)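 Damage was rated 13 days after treatment from 0 (none) to 100 (plant killed). Compound was applied as a spray at 15.625, 62.5 or 250 g/ha in 50:50 acetone/water containing 0.5% Tween 20, onto 8-day-old potted plants kept in a glasshouse (24/16 °C, 14 h light, 65% humidity).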

[8] = tested on: velvetleaf (Abutilon theophrasti); experiment: Test G Post-Emergence Protocol; details: Abutilon theophrasti, post-emergence, 312 h
Procedure, shortened: as §2

corn (Zea mays) [9] = experiment: Test G Post-Emergence Protocol; details: Zea mays, post-emergence, 312 h
Procedure, shortened: as §2

[10] = tested on: redroot pigweed (Amaranthus retroflexus); experiment: Test G Post-Emergence Protocol; details: Amaranthus retroflexus, post-emergence, 312 h
Procedure, shortened: as §2

[11] = tested on: ivy-leaved morning glory (Ipomoea hederacea); experiment: Test G Post-Emergence Protocol; details: Ipomoea, post-emergence, 312 h
Procedure, shortened: as §2

[12] = tested on: giant foxtail (Setaria faberi); experiment: Test G Post-Emergence Protocol; details: Setaria faberi, post-emergence, 312 h
Procedure, shortened: as §2

Compound: Cc1c(Cl)ccc([C@@H]2CN(C)C(=O)[C@H]2C(=O)Nc2cccc(F)c2F)c1F (racemic) [Compound 1473]
- pest or weed control at 15.625 g/ha ([1]; 15.625 g ai/ha, read-out: Barnyard grass damage rating (100=total damage to plant; 0=no damage to plant)): 20%
- pest or weed control at 62.5 g/ha ([1]; 62.5 g ai/ha, 100=total damage to plant, 0=no damage to plant, read-out: plant damage rating, Barnyardgrass): 40%
- pest or weed control at 250 g/ha ([1]; 250 g ai/ha, read-out: Barnyardgrass damage rating (100=total damage to plant; 0=no damage to plant)): 70%
- pest or weed control at 15.625 g/ha ([2]; 15.625 g ai/ha, read-out: Velvetleaf damage rating (100=total damage to plant; 0=no damage to plant)): 0%
- pest or weed control at 62.5 g/ha ([2]; 62.5 g ai/ha, 100=total damage to plant, 0=no damage to plant, read-out: plant damage rating, Velvetleaf): 0%
- pest or weed control at 250 g/ha ([2]; 250 g ai/ha, read-out: Velvetleaf damage rating (100=total damage to plant; 0=no damage to plant)): 0%
- plant injury at 15.625 g/ha (corn (Zea mays) [3]; 15.625 g ai/ha, read-out: Corn damage rating (100=total damage to plant; 0=no damage to plant)): 0%
- plant injury at 62.5 g/ha (corn (Zea mays) [3]; 62.5 g ai/ha, 100=total damage to plant, 0=no damage to plant, read-out: plant damage rating, Corn): 0%
- plant injury at 250 g/ha (corn (Zea mays) [3]; 250 g ai/ha, read-out: Corn damage rating (100=total damage to plant; 0=no damage to plant)): 10%
- pest or weed control at 15.625 g/ha ([4]; 15.625 g ai/ha, read-out: Pigweed, Redroot damage rating (100=total damage to plant; 0=no damage to plant)): 0%
- pest or weed control at 62.5 g/ha ([4]; 62.5 g ai/ha, 100=total damage to plant, 0=no damage to plant, read-out: plant damage rating, Pigweed, Redroot): 0%
- pest or weed control at 250 g/ha ([4]; 250 g ai/ha, read-out: Pigweed, Redroot damage rating (100=total damage to plant; 0=no damage to plant)): 70%
- pest or weed control at 15.625 g/ha ([5]; 15.625 g ai/ha, read-out: Morning-glory, Ivy-leaved damage rating (100=total damage to plant; 0=no damage to plant)): 10%
- pest or weed control at 62.5 g/ha ([5]; 62.5 g ai/ha, 100=total damage to plant, 0=no damage to plant, read-out: plant damage rating, Morningglory, Ivy-leaved): 0%
- pest or weed control at 250 g/ha ([5]; 250 g ai/ha, read-out: Morningglory, Ivy-leaved damage rating (100=total damage to plant; 0=no damage to plant)): 10%
- pest or weed control at 15.625 g/ha ([6]; 15.625 g ai/ha, read-out: Foxtail, Giant damage rating (100=total damage to plant; 0=no damage to plant)): 50%
- pest or weed control at 62.5 g/ha ([6]; 62.5 g ai/ha, 100=total damage to plant, 0=no damage to plant, read-out: plant damage rating, Foxtail, Giant): 70%
- pest or weed control at 250 g/ha ([6]; 250 g ai/ha, read-out: Foxtail, Giant damage rating (100=total damage to plant; 0=no damage to plant)): 80%
- pest or weed control at 15.625 g/ha ([7]; 15.625 g ai/ha, evaluated after 13 days (100=total damage to plant; 0=no damage to plant), read-out: Barnyardgrass damage rating): 40%
- pest or weed control at 62.5 g/ha ([7]; 62.5 g ai/ha, evaluated after 13 days, read-out: Barnyardgrass damage rating (100=total damage to plant; 0=no damage to plant)): 40%
- pest or weed control at 250 g/ha ([7]; 250 g ai/ha, evaluated after 13 days, read-out: damage to plant, Barnyardgrass (100=total damage to plant; 0=no damage to plant)): 50%
- pest or weed control at 15.625 g/ha ([8]; 15.625 g ai/ha, evaluated after 13 days (100=total damage to plant; 0=no damage to plant), read-out: Velvetleaf damage rating): 0%
- pest or weed control at 62.5 g/ha ([8]; 62.5 g ai/ha, evaluated after 13 days, read-out: Velvetleaf damage rating (100=total damage to plant; 0=no damage to plant)): 0%
- pest or weed control at 250 g/ha ([8]; 250 g ai/ha, evaluated after 13 days, read-out: damage to plant, Velvetleaf (100=total damage to plant; 0=no damage to plant)): 10%
- plant injury at 15.625 g/ha (corn (Zea mays) [9]; 15.625 g ai/ha, evaluated after 13 days (100=total damage to plant; 0=no damage to plant), read-out: Corn damage rating): 20%
- plant injury at 62.5 g/ha (corn (Zea mays) [9]; 62.5 g ai/ha, evaluated after 13 days, read-out: Corn damage rating (100=total damage to plant; 0=no damage to plant)): 10%
- plant injury at 250 g/ha (corn (Zea mays) [9]; 250 g ai/ha, evaluated after 13 days, read-out: damage to plant, Corn (100=total damage to plant; 0=no damage to plant)): 10%
- pest or weed control at 15.625 g/ha ([10]; 15.625 g ai/ha, evaluated after 13 days (100=total damage to plant; 0=no damage to plant), read-out: Pigweed, Redroot damage rating): 0%
- pest or weed control at 62.5 g/ha ([10]; 62.5 g ai/ha, evaluated after 13 days, read-out: Pigweed, Redroot damage rating (100=total damage to plant; 0=no damage to plant)): 0%
- pest or weed control at 250 g/ha ([10]; 250 g ai/ha, evaluated after 13 days, read-out: damage to plant, Pigweed, Redroot (100=total damage to plant; 0=no damage to plant)): 10%
- pest or weed control at 15.625 g/ha ([11]; 15.625 g ai/ha, evaluated after 13 days (100=total damage to plant; 0=no damage to plant), read-out: Morningglory, Ivy-leaved damage rating): 0%
- pest or weed control at 62.5 g/ha ([11]; 62.5 g ai/ha, evaluated after 13 days, read-out: Morningglory, Ivy-leaved damage rating (100=total damage to plant; 0=no damage to plant)): 10%
- pest or weed control at 250 g/ha ([11]; 250 g ai/ha, evaluated after 13 days, read-out: damage to plant, Morningglory, Ivy-leaved (100=total damage to plant; 0=no damage to plant)): 20%
- pest or weed control at 15.625 g/ha ([12]; 15.625 g ai/ha, evaluated after 13 days (100=total damage to plant; 0=no damage to plant), read-out: Foxtail, Giant damage rating): 60%
- pest or weed control at 62.5 g/ha ([12]; 62.5 g ai/ha, evaluated after 13 days, read-out: Foxtail, Giant damage rating (100=total damage to plant; 0=no damage to plant)): 70%
- pest or weed control at 250 g/ha ([12]; 250 g ai/ha, evaluated after 13 days, read-out: damage to plant, Foxtail, Giant (100=total damage to plant; 0=no damage to plant)): 70%
